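A five-concentration, 48-hour dose response in 96-well plates underlies each endpoint, interpolated linearly between surrounding concentrations. Here, GI50 denotes the concentration required for 50% inhibition of growth.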 Calls of active or inactive are those of the source. Cut-off read from the data, not from the text of the source: active = GI50 up to about 1.1 µM and inactive = higher.
Columns and labels:
Assay in all cases: growth of human tumour cells (NCI), 48 h
RPMI-8226 = test system: RPMI-8226
EKVX = test system: EKVX
UO-31 = test system: UO-31
TK-10 = test system: TK-10
Hs-578T = test system: Hs-578T
Malme-3M = test system: Malme-3M
U-251 = test system: U-251
NCI-H226 = test system: NCI-H226
T47D = test system: T47D
MDA-MB-231 = test system: MDA-MB-231
OVCAR-4 = test system: OVCAR-4
BT-549 = test system: BT-549
SK-MEL-5 = test system: SK-MEL-5
NCI/ADR-RES = test system: NCI/ADR-RES
LOX IMVI = test system: LOX IMVI
HCT-15 = test system: HCT-15
SNB-75 = test system: SNB-75
SF-268 = test system: SF-268
HL-60 = test system: HL-60

CC12c3c4cccc3Oc3cc(N)cc(c31)Oc1cc(N)cc(c12)O4 was tested, and the GI50 (RPMI-8226) was 5.93 µM (inactive), the GI50 (EKVX) was 3.38 µM (inactive) and the GI50 (UO-31) was 17.7 µM (inactive). For the same compound, the GI50 (TK-10) was 10 µM (inactive), the GI50 (Hs-578T) was 6.18 µM (inactive) and the GI50 (Malme-3M) was 2.99 µM (inactive). The GI50 (U-251) was 6.93 µM (inactive), the GI50 (NCI-H226) was 5.62 µM (inactive) and the GI50 (T47D) was 9.98 µM (inactive). The GI50 (MDA-MB-231) was 3.5 µM (inactive), the GI50 (OVCAR-4) was 10.4 µM (inactive) and the GI50 (BT-549) was 3.84 µM (inactive). The GI50 (SK-MEL-5) was 3.3 µM (inactive), the GI50 (NCI/ADR-RES) was 0.953 µM (active) and the GI50 (LOX IMVI) was 6 µM (inactive). The GI50 (HCT-15) was 4.14 µM, the GI50 (SNB-75) was 3.77 µM (inactive) and the GI50 (SF-268) was 4.31 µM (inactive).
With CC(=O)N1C(=O)/C(=C\C(=O)c2ccc([N+](=O)[O-])cc2)c2ccccc21 the GI50 (EKVX) was 19.6 µM (inactive), the GI50 (UO-31) was 19 µM (inactive) and the GI50 (TK-10) was 13.1 µM (inactive). For the same compound, the GI50 (Hs-578T) was 22.2 µM (inactive), the GI50 (Malme-3M) was 20.7 µM (inactive) and the GI50 (U-251) was 21.1 µM (inactive). The GI50 (NCI-H226) was > 100 µM (inactive), the GI50 (T47D) was 20.5 µM (inactive) and the GI50 (MDA-MB-231) was 35.3 µM (inactive). The GI50 (OVCAR-4) was 14.4 µM (inactive), the GI50 (BT-549) was 20.9 µM (inactive) and the GI50 (SK-MEL-5) was 35 µM (inactive). For the same compound, the GI50 (NCI/ADR-RES) was 44.4 µM (inactive), the GI50 (HCT-15) was 15 µM and the GI50 (SNB-75) was 21.9 µM (inactive). The GI50 (SF-268) was 22.6 µM (inactive).
With COc1cc(OC)c2c(=O)c(OC)c(-c3ccc4c(c3)OCO4)oc2c1 the GI50 (HL-60) was 20.9 µM (inactive), the GI50 (EKVX) was 41.7 µM (inactive) and the GI50 (UO-31) was > 100 µM (inactive). For the same compound, the GI50 (TK-10) was 45 µM (inactive), the GI50 (Hs-578T) was 35.1 µM (inactive) and the GI50 (Malme-3M) was > 100 µM (inactive). For the same compound, the GI50 (U-251) was 16.6 µM (inactive), the GI50 (NCI-H226) was 46.3 µM (inactive) and the GI50 (T47D) was 23.1 µM (inactive). The GI50 (MDA-MB-231) was 49.9 µM (inactive), the GI50 (OVCAR-4) was > 100 µM (inactive) and the GI50 (BT-549) was 71.1 µM (inactive). For the same compound, the GI50 (SK-MEL-5) was 47.3 µM (inactive), the GI50 (NCI/ADR-RES) was 46.9 µM (inactive) and the GI50 (LOX IMVI) was 15.8 µM (inactive). For the same compound, the GI50 (HCT-15) was > 100 µM, the GI50 (SNB-75) was 15.9 µM (inactive) and the GI50 (SF-268) was 20.7 µM (inactive).
With O=C1C=CC(=O)c2c(NCC3CC3)ccc(NCC3CC3)c21 the GI50 (RPMI-8226) was 17.1 µM (inactive), the GI50 (HL-60) was 11 µM (inactive) and the GI50 (EKVX) was 29 µM (inactive). The GI50 (UO-31) was 75.2 µM (inactive), the GI50 (TK-10) was > 100 µM (inactive) and the GI50 (Hs-578T) was 82.8 µM (inactive). For the same compound, the GI50 (Malme-3M) was 19.8 µM (inactive), the GI50 (U-251) was 55.7 µM (inactive) and the GI50 (T47D) was 6.34 µM (inactive). The GI50 (MDA-MB-231) was 36.1 µM (inactive), the GI50 (BT-549) was 25.9 µM (inactive) and the GI50 (SK-MEL-5) was 22.6 µM (inactive). For the same compound, the GI50 (NCI/ADR-RES) was 64.1 µM (inactive), the GI50 (LOX IMVI) was 20.7 µM (inactive) and the GI50 (HCT-15) was 13.3 µM.
In the case of COc1ccc(/C=C2/C(=O)C(c3ccccc3)N(c3ccccc3)C2=O)cc1OC (centres undefined), the GI50 (RPMI-8226) is reported as > 10 µM (inactive), the GI50 (HL-60) is reported as > 10 µM (inactive) and the GI50 (EKVX) is reported as > 10 µM (inactive). For the same compound, the GI50 (UO-31) was > 10 µM (inactive), the GI50 (TK-10) was > 10 µM (inactive) and the GI50 (Hs-578T) was > 10 µM (inactive). The GI50 (Malme-3M) was 1.42 µM (inactive), the GI50 (U-251) was > 10 µM (inactive) and the GI50 (NCI-H226) was > 10 µM (inactive). The GI50 (T47D) was > 10 µM (inactive), the GI50 (MDA-MB-231) was > 10 µM (inactive) and the GI50 (OVCAR-4) was > 10 µM (inactive). The GI50 (BT-549) was > 10 µM (inactive), the GI50 (SK-MEL-5) was 0.168 µM (active) and the GI50 (NCI/ADR-RES) was > 10 µM (inactive). For the same compound, the GI50 (LOX IMVI) was > 10 µM (inactive), the GI50 (HCT-15) was > 10 µM and the GI50 (SF-268) was > 10 µM (inactive).
For CC1=C/C(=N/N2C(=O)/C(=C/c3ccc(Cl)cc3)N=C2c2ccccc2)CC(C)(C)C1, the GI50 (RPMI-8226) was 20.9 µM (inactive), the GI50 (EKVX) was 81.7 µM (inactive) and the GI50 (UO-31) was > 100 µM (inactive). For the same compound, the GI50 (TK-10) was 89.5 µM (inactive), the GI50 (Hs-578T) was 52 µM (inactive) and the GI50 (Malme-3M) was > 100 µM (inactive). The GI50 (U-251) was 21.5 µM (inactive), the GI50 (NCI-H226) was 90.2 µM (inactive) and the GI50 (T47D) was 85.9 µM (inactive). For the same compound, the GI50 (MDA-MB-231) was > 100 µM (inactive), the GI50 (OVCAR-4) was 45.9 µM (inactive) and the GI50 (BT-549) was > 100 µM (inactive). For the same compound, the GI50 (SK-MEL-5) was 35.7 µM (inactive), the GI50 (NCI/ADR-RES) was 60.7 µM (inactive) and the GI50 (LOX IMVI) was 42.1 µM (inactive). For the same compound, the GI50 (HCT-15) was > 100 µM, the GI50 (SNB-75) was 31.5 µM (inactive) and the GI50 (SF-268) was 73.3 µM (inactive).
For O=C1Nc2ccccc2C1=Nc1ccc(S(=O)(=O)Nc2nccs2)cc1, the GI50 (HL-60) was > 100 µM (inactive), the GI50 (EKVX) was > 100 µM (inactive) and the GI50 (UO-31) was > 100 µM (inactive). For the same compound, the GI50 (TK-10) was > 100 µM (inactive), the GI50 (Hs-578T) was > 100 µM (inactive) and the GI50 (Malme-3M) was > 100 µM (inactive). For the same compound, the GI50 (U-251) was > 100 µM (inactive), the GI50 (NCI-H226) was > 100 µM (inactive) and the GI50 (T47D) was > 100 µM (inactive). The GI50 (MDA-MB-231) was > 100 µM (inactive), the GI50 (OVCAR-4) was > 100 µM (inactive) and the GI50 (BT-549) was > 100 µM (inactive). The GI50 (SK-MEL-5) was > 100 µM (inactive), the GI50 (NCI/ADR-RES) was > 100 µM (inactive) and the GI50 (LOX IMVI) was > 100 µM (inactive). The GI50 (HCT-15) was > 100 µM, the GI50 (SNB-75) was > 100 µM (inactive) and the GI50 (SF-268) was > 100 µM (inactive).
O=C(O)CC(NC(=O)Nc1ccc([N+](=O)[O-])cc1)C(=O)Nc1ccc([N+](=O)[O-])cc1 (centres undefined) was tested, and the GI50 (RPMI-8226) was > 100 µM (inactive), the GI50 (EKVX) was > 100 µM (inactive) and the GI50 (UO-31) was > 100 µM (inactive). For the same compound, the GI50 (TK-10) was > 100 µM (inactive), the GI50 (Hs-578T) was 50.2 µM (inactive) and the GI50 (Malme-3M) was > 100 µM (inactive). The GI50 (U-251) was > 100 µM (inactive), the GI50 (NCI-H226) was > 100 µM (inactive) and the GI50 (T47D) was > 100 µM (inactive). The GI50 (MDA-MB-231) was > 100 µM (inactive), the GI50 (OVCAR-4) was > 100 µM (inactive) and the GI50 (BT-549) was > 100 µM (inactive). For the same compound, the GI50 (SK-MEL-5) was 50.8 µM (inactive), the GI50 (NCI/ADR-RES) was > 100 µM (inactive) and the GI50 (LOX IMVI) was > 100 µM (inactive). The GI50 (HCT-15) was > 100 µM, the GI50 (SNB-75) was > 100 µM (inactive) and the GI50 (SF-268) was 9.44 µM (inactive).
